Patent US10793564B2, “Amino acid compounds and methods of use” (Pliant Therapeutics, Inc., priority 2018, dated 2020)

molecular target: recombinant human integrin αVβ6 (Homo sapiens (Human), UniProt P06756+P18564); assay: Solid phase integrin αVβ6 binding assay; details: inhibition of recombinant TGFβ1 LAP binding to coated integrin, IC50 presented in four ranges, read-out: αvβ6 Inhibition IC50 (nM) - range
Description: (§1) Microplates were coated with recombinant human integrin αVβ6 (2 μg/mL) in PBS (100 μL/well 25° C., overnight). The coating solution was removed, washed with wash buffer (0.05% Tween 20; 0.5 mM MnCl2; in 1×TBS). The plate was blocked with 200 μL/well of Block Buffer (1% BSA; 5% sucrose; 0.5 mM MnCl2; in 1×TBS) at 37° C. for 2 h. Dilutions of testing compounds and recombinant TGFβ1 LAP (0.67 μg/mL) in binding buffer (0.05% BSA; 2.5% sucrose; 0.5 mM MnCl2; in 1×TBS) were added. The plate was incubated for 2 hours at 25° C., washed, and incubated for 1 hour with Biotin-Anti-hLAP. Bound antibody was detected by peroxidase-conjugated streptavidin. The IC50 values for testing compounds were calculated by a four-parameter logistic regression.
The compounds tested were compound samples prepared according to procedures described in the Synthetic Examples section, with the stereochemical purity as indicated in the Examples.
as §1, with “A third series of exemplary compounds was selected for testing in the solid phase integrin αVβ6 binding assay. The compounds tested were compound samples prepared according to procedures described in the Synthetic Examples section, with the stereochemical purity as indicated in the Examples. As in Example B1, microplates were” for “Microplates were”, “(0.67 g/mL)” for “(0.67 μg/mL)”

Sequence of recombinant human integrin αVβ6 (P06756 31-992): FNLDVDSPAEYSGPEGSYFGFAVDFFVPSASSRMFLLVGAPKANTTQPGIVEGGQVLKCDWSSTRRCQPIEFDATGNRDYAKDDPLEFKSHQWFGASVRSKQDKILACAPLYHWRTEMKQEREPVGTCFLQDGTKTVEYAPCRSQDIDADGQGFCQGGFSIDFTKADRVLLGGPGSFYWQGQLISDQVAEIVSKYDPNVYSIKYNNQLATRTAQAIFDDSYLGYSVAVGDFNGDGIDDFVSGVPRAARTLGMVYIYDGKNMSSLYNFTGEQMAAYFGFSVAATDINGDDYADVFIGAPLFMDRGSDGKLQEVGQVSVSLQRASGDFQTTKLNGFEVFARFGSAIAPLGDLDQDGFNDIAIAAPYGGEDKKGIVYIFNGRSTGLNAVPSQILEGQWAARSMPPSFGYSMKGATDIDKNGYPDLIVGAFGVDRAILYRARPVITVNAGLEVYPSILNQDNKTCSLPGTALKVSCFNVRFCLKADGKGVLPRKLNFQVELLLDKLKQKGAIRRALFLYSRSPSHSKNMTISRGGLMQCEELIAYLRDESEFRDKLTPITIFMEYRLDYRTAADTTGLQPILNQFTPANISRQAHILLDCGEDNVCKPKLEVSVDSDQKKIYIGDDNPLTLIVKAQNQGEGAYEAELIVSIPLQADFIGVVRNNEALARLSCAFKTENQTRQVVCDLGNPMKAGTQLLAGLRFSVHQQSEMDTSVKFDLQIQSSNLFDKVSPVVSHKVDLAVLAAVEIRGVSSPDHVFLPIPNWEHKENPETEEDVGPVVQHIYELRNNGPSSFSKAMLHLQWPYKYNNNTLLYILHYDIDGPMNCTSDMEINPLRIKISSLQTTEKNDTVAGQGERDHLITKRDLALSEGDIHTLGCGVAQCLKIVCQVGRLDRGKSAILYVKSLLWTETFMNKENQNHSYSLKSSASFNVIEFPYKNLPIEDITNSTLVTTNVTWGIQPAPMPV
Sequence of recombinant human integrin αVβ6 (P18564 22-707): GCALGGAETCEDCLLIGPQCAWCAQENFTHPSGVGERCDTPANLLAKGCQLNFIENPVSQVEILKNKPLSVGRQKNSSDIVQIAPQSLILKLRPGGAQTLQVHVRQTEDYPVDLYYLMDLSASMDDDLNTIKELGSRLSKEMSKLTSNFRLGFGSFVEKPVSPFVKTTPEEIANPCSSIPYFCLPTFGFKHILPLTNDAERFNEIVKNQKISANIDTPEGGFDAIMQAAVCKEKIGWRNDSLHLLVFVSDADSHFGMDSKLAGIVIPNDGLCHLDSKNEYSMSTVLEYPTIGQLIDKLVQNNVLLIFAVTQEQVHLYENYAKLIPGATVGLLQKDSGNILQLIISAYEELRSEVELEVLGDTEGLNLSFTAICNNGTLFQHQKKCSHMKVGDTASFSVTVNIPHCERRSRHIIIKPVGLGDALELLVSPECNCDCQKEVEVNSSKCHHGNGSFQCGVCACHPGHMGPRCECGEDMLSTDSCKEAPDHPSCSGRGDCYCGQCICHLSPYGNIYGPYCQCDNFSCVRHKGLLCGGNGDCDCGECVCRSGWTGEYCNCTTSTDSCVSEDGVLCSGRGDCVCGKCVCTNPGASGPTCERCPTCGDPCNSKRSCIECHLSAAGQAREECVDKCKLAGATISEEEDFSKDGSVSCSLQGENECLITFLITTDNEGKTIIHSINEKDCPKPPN

Row | Compound | IC50
1 | O=C(O)[C@H](CCN(CCCCc1ccc2c(n1)NCCC2)C1CC1)Nc1cc(C(F)F)ncn1 [Compound 1, (S)-4-(cyclopropyl(4-(5,6,7,8-tetrahydro-1,8-naphthyridin-2-yl)butyl)amino)-2-((6-(difluoromethyl)pyrimidin-4-yl)amino) butanoic Acid] | 250 to 1000 nM
2 | CC(C)(O)CN(CCCCc1ccc2c(n1)NCCC2)CC[C@H](Nc1ccncn1)C(=O)O [Compound 4, (S)-4-((2-hydroxy-2-methylpropyl) (4-(5,6,7,8-tetrahydro-1,8-naphthyridin-2-yl)butyl)amino)-2-(pyrimidin-4-ylamino) butanoic Acid] | 50 to 250 nM
3 | O=C(O)[C@H](CCN(CCCCc1ccc2c(n1)NCCC2)C1CC1)Nc1ncnc2ccccc12 [Compound 6, (S)-4-(cyclopropyl(4-(5,6,7,8-tetrahydro-1,8-naphthyridin-2-yl)butyl)amino)-2-(quinazolin-4-ylamino) butanoic Acid] | 50 to 250 nM
4 | O=C(O)[C@H](CCN(CCCCc1ccc2c(n1)NCCC2)CC(F)F)Nc1ncnc2ccccc12 [Compound 8, (S)-4-((2,2-difluoroethyl) (4-(5,6,7,8-tetrahydro-1,8-naphthyridin-2-yl)butyl)amino)-2-(quinazolin-4-ylamino) butanoic Acid] | 50 to 250 nM
5 | O=C(O)[C@H](CCN(CCCCc1ccc2c(n1)NCCC2)C1CC(F)(F)C1)Nc1ncnc2ccccc12 [Compound 9, (S)-4-((3,3-difluorocyclobutyl) (4-(5,6,7,8-tetrahydro-1,8-naphthyridin-2-yl)butyl)amino)-2-(quinazolin-4-ylamino) butanoic Acid] | > 1000 nM
6 | COCCN(CCCCc1ccc2c(n1)NCCC2)CC[C@H](Nc1ncnc2cc(C(F)(F)F)ccc12)C(=O)O [Compound 13, (S)-4-((2-methoxyethyl) (4-(5,6,7,8-tetrahydro-1,8-naphthyridin-2-yl)butyl)amino)-2-((7-(trifluoromethyl)quinazolin-4-yl)amino) butanoic Acid] | 50 to 250 nM
7 | COCCN(CCCCc1ccc2c(n1)NCCC2)CC[C@H](Nc1cc(C(F)F)ncn1)C(=O)O [Compound 23, (S)-2-((6-(difluoromethyl)pyrimidin-4-yl)amino)-4-((2-methoxyethyl) (4-(5,6,7,8-tetrahydro-1,8-naphthyridin-2-yl)butyl)amino) butanoic Acid] | < 50 nM
8 | COCCN(CCCCc1ccc2c(n1)NCCC2)CC[C@H](Nc1ccnc(C(F)(F)F)n1)C(=O)O [Compound 24, (S)-4-((2-methoxyethyl) (4-(5,6,7,8-tetrahydro-1,8-naphthyridin-2-yl)butyl)amino)-2-((2-(trifluoromethyl)pyrimidin-4-yl)amino) butanoic Acid] | < 50 nM
9 | CO[C@@H](C)CN(CCCCc1ccc2c(n1)NCCC2)CC[C@H](Nc1ncnc2ccccc12)C(=O)O [Compound 25, (S)-4-(((S)-2-methoxypropyl) (4-(5,6,7,8-tetrahydro-1,8-naphthyridin-2-yl)butyl)amino)-2-(quinazolin-4-ylamino) butanoic Acid] | < 50 nM
10 | COCCN(CCCCc1ccc2c(n1)NCCC2)CC[C@H](Nc1cc(C)nc(C(F)(F)F)n1)C(=O)O [Compound 26, (S)-4-((2-methoxyethyl) (4-(5,6,7,8-tetrahydro-1,8-naphthyridin-2-yl)butyl)amino)-2-((6-methyl-2-(trifluoromethyl)pyrimidin-4-yl)amino) butanoic Acid] | < 50 nM
11 | CS(=O)(=O)CCN(CCCCc1ccc2c(n1)NCCC2)CC[C@H](Nc1ncnc2ccccc12)C(=O)O [Compound 27, (S)-4-((2-(methylsulfonyl)ethyl) (4-(5,6,7,8-tetrahydro-1,8-naphthyridin-2-yl)butyl)amino)-2-(quinazolin-4-ylamino) butanoic Acid] | < 50 nM

Next, values leading:

Row | IC50 | Compound
12 | < 50 nM | COCCN(CCCCc1ccc2c(n1)NCCC2)CC[C@H](Nc1ncnc2ccccc12)C(=O)O [Compound 5, (S)-4-((2-methoxyethyl) (4-(5,6,7,8-tetrahydro-1,8-naphthyridin-2-yl)butyl)amino)-2-(quinazolin-4-ylamino) butanoic Acid]
13 | < 50 nM | COCCN(CCCCc1ccc2c(n1)NCCC2)CC[C@H](Nc1ncnc2cc(F)ccc12)C(=O)O [Compound 7, (S)-2-((7-fluoroquinazolin-4-yl)amino)-4-((2-methoxyethyl) (4-(5,6,7,8-tetrahydro-1,8-naphthyridin-2-yl)butyl)amino) butanoic Acid]
14 | < 50 nM | COCCN(CCCCc1ccc2c(n1)NCCC2)CC[C@H](Nc1nc(C)nc2ccccc12)C(=O)O [Compound 10, (S)-4-((2-methoxyethyl) (4-(5,6,7,8-tetrahydro-1,8-naphthyridin-2-yl)butyl)amino)-2-((2-methylquinazolin-4-yl)amino) butanoic Acid]
15 | < 50 nM | COCCN(CCCCc1ccc2c(n1)NCCC2)CC[C@H](Nc1ncnc2ncccc12)C(=O)O [Compound 11, (S)-4-((2-methoxyethyl) (4-(5,6,7,8-tetrahydro-1,8-naphthyridin-2-yl)butyl)amino)-2-(pyrido[2,3-d]pyrimidin-4-ylamino) butanoic Acid]
16 | < 50 nM | COCCN(CCCCc1ccc2c(n1)NCCC2)CC[C@H](Nc1nc(C)nc2cc(F)ccc12)C(=O)O [Compound 12, (S)-2-((7-fluoro-2-methylquinazolin-4-yl)amino)-4-((2-methoxyethyl) (4-(5,6,7,8-tetrahydro-1,8-naphthyridin-2-yl)butyl)amino) butanoic Acid]
17 | < 50 nM | COCCN(CCCCc1ccc2c(n1)NCCC2)CC[C@H](Nc1nc(C(F)(F)F)nc2ccccc12)C(=O)O [Compound 14, (S)-4-((2-methoxyethyl) (4-(5,6,7,8-tetrahydro-1,8-naphthyridin-2-yl)butyl)amino)-2-((2-(trifluoromethyl)quinazolin-4-yl)amino) butanoic Acid]
18 | < 50 nM | COCCN(CCCCc1ccc2c(n1)NCCC2)CC[C@H](Nc1ncnc2c(C(F)(F)F)cccc12)C(=O)O [Compound 15, (S)-4-((2-methoxyethyl) (4-(5,6,7,8-tetrahydro-1,8-naphthyridin-2-yl)butyl)amino)-2-((8-(trifluoromethyl)quinazolin-4-yl)amino) butanoic Acid]
19 | < 50 nM | COCCN(CCCCc1ccc2c(n1)NCCC2)CC[C@H](Nc1ncnc2cccnc12)C(=O)O [Compound 16, (S)-4-((2-methoxyethyl) (4-(5,6,7,8-tetrahydro-1,8-naphthyridin-2-yl)butyl)amino)-2-(pyrido[3,2-d]pyrimidin-4-ylamino) butanoic Acid]
20 | < 50 nM | COCCN(CCCCc1ccc2c(n1)NCCC2)CC[C@H](Nc1ncnc2cnccc12)C(=O)O [Compound 17, (S)-4-((2-methoxyethyl) (4-(5,6,7,8-tetrahydro-1,8-naphthyridin-2-yl)butyl)amino)-2-(pyrido[3,4-d]pyrimidin-4-ylamino) butanoic Acid]
21 | < 50 nM | COCCN(CCCCc1ccc2c(n1)NCCC2)CC[C@H](Nc1ncnc2cccc(F)c12)C(=O)O [Compound 18, (S)-2-((5-fluoroquinazolin-4-yl)amino)-4-((2-methoxyethyl) (4-(5,6,7,8-tetrahydro-1,8-naphthyridin-2-yl)butyl)amino) butanoic Acid]
22 | < 50 nM | COCCN(CCCCc1ccc2c(n1)NCCC2)CC[C@H](Nc1ncnc2ccc(F)cc12)C(=O)O [Compound 19, (S)-2-((6-fluoroquinazolin-4-yl)amino)-4-((2-methoxyethyl) (4-(5,6,7,8-tetrahydro-1,8-naphthyridin-2-yl)butyl)amino) butanoic Acid]
23 | < 50 nM | COCCN(CCCCc1ccc2c(n1)NCCC2)CC[C@H](Nc1ncnc2c(F)cccc12)C(=O)O [Compound 20, (S)-2-((8-fluoroquinazolin-4-yl)amino)-4-((2-methoxyethyl) (4-(5,6,7,8-tetrahydro-1,8-naphthyridin-2-yl)butyl)amino) butanoic Acid]
24 | < 50 nM | COCCN(CCCCc1ccc2c(n1)NCCC2)CC[C@H](Nc1ncnc2cc(F)c(F)cc12)C(=O)O [Compound 21, (S)-2-((6,7-difluoroquinazolin-4-yl)amino)-4-((2-methoxyethyl) (4-(5,6,7,8-tetrahydro-1,8-naphthyridin-2-yl)butyl)amino) butanoic Acid]
25 | < 50 nM | COCCN(CCCCc1ccc2c(n1)NCCC2)CC[C@H](Nc1cc(C(F)(F)F)nc(C)n1)C(=O)O [Compound 22, (S)-4-((2-methoxyethyl) (4-(5,6,7,8-tetrahydro-1,8-naphthyridin-2-yl)butyl)amino)-2-((2-methyl-6-(trifluoromethyl)pyrimidin-4-yl)amino) butanoic Acid]
